Experiment: Antimicrobial preservative effectiveness (APE), USP 25 test 51
Format: cell-based
Conditions: pH 8.5
Description: Various concentrations of benzyl alcohol were tested for antimicrobial preservative effectiveness (APE) using the USP 25 test 51 (U.S. Pharmacopeia 25, U.S. Pharmacopeia, MD (2001)). The formulations below are based on the formulation designated as 940-16 C (with a slightly higher pH) in Example 2 above with varying benzyl alcohol concentrations. The table below summarizes the results of these studies. Antimicrobial activity can be measured by any standard assay known to those of skill in the art (e.g., USP 25 antimicrobial preservative effectiveness (APE) test 51 (U.S. Pharmacopeia 25, U.S. Pharmacopeia, MD (2001)).

For `OCc1ccccc1` [benzyl alcohol], the “USP antimicrobial preservative requirement” value was “meets the USP antimicrobial preservative requirement”.
